# Experimental data published in patent publication US10435379B2, “[4-(1,3,3-trimethyl-2-OXO-3,4-dihydro-1H-quinoxalin-7-yl)phenoxy]ethyloxy compound or salt thereof” (SANTEN PHARMACEUTICAL CO., LTD., priority 2015, dated 2019).
# Target: Recombinant human GR (Homo sapiens (Human), UniProt P04150)
# Assay: GR binding activity evaluation test (GR competitive binding assay, fluorescence polarization)
# Details: 20 μM test compound solution, 10 μL/well; 2 mM DEX as positive control; 2 hours at room temperature
# Method: In order to evaluate a binding activity of the present compound to GR, a GR receptor competitor assay was carried out by a fluorescence polarization method. In the assay, a GR competitive binding assay kit (manufactured by Invitrogen, cat No. P2816) was used for the assay, and a procedure was carried out according to the protocol attached to the kit. Hereinafter, the specific method will be described.
# GR screening buffer: A buffer containing 10 mM of potassium phosphate (pH 7.4), 20 mM of sodium molybdate (Na2MoO4), 0.1 mM of ethylene diamine tetraacetic acid (EDTA), 5 mM of dithiothreitol (DTT), 0.1 mM of stabilizing peptide and 2% of dimethylsulfoxide was prepared.
# 4×GS1 solution: Fluormone™ GS1, which is a fluorescent glucocorticoid ligand, was diluted with GR screening buffer, whereby a 4 nM solution was prepared. […]
# 5) The plate was incubated in a dark place at room temperature for 2 hours, and fluorescence polarization of each well was measured.
# A GR binding ratio (%) was calculated from the following equation. GR binding ratio (%)=100×{1−(fluorescence polarization of test compound solution−average value of fluorescence polarization of positive control solution)/(average value of fluorescence polarization of negative control solution−average value of fluorescence polarization of positive control solution)} (Test Results and Discussion)
# Chain of Recombinant human GR (P04150 whole entry): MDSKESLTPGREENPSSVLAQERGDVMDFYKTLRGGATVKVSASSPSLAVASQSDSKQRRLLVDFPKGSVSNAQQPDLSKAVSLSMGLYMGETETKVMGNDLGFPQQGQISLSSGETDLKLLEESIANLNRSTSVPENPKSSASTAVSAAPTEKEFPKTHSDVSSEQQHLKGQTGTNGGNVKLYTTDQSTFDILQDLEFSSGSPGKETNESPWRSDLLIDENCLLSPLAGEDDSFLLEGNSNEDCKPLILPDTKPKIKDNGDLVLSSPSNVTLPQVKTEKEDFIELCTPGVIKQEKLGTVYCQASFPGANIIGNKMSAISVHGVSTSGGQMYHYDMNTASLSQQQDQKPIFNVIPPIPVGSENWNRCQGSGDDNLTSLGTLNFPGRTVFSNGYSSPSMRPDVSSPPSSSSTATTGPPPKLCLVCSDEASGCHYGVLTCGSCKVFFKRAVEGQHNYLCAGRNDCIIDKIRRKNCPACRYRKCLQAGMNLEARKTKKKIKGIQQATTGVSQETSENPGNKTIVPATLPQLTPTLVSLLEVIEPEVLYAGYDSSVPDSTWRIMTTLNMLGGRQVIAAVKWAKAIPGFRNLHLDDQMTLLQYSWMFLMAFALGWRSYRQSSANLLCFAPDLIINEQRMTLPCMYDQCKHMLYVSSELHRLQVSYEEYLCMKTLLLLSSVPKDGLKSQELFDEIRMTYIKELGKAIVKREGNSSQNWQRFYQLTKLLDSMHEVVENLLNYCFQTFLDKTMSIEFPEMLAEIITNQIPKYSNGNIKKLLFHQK
row,Compound,GR binding rate (%)
1,"COc1cc(OCC(O)CO)ccc1-c1ccc2c(c1COc1cc(F)ccc1C)N(C)C(=O)C(C)(C)N2 (stereo not drawn) [Compound 4-1, 7-[4-(2,3-dihydroxypropyl)oxy-2-methoxyphenyl]-8-(5-fluoro-2-methylphenoxymethyl)-1,3,3-trimethyl-3,4-dihydro-1H-quinoxalin-2-one]",>99%

# Test system: IL-6 production in human corneal epithelium cell line (HCE-T)
# Assay: IL-6 production inhibitory action evaluation test after LPS stimulation
# Assay type: cell-based
# Details: 4 hours, 100 μM test compound solution 10 μL/well, DEX treated group = 100
# Method: To evaluate the action of the present compounds as a GR agonist, IL-6 production inhibitory action in human corneal epithelial cell line after LPS stimulation was examined The IL-6 production was measured by using the HTRF method (Cat No. 62IL6PEB manufactured by Cisbio Bioassays, Inc.) according to the attached protocol. The specific method is described below.
# LPS solution: After dissolving LPS in PBS(−), the resulting solution was diluted with a culture solution, whereby an LPS solution with a 1 μg/mL concentration was prepared.
# After dissolving the test compound in dimethylsulfoxide, the solution was diluted with a 10% FBS-DMEM/Ham's F12 medium, whereby a 100 μM of the test compound solution was prepared. […] In addition, DEX was similarly dissolved, whereby a 100 μM concentration of the DEX solution was prepared, and an IL-6 production inhibitory ratio of DEX was measured, and used for calculation of Efficacy (% DEX).
# Used cells: human corneal epithelium cell line (HCE-T) (RIKEN, Institute of Physical and Chemical Research)
# The cells continued to subculture according to this method were used for the test.
# (Calculation of IL-6 Production Inhibitory Ratio)
# The IL-6 production inhibitory ratio (%) was calculated by the following formula. IL-6 production inhibitory ratio (%)=100×{1−(IL-6 produced amount of each test compound solution−average value of IL-6 produced amount of negative control group)/(average value of IL-6 produced amount of positive control group−average value of IL-6 produced amount of negative control group)}(%)
# Further, the IL-6 production inhibitory ratio (Efficacy (% DEX)) when the DEX treated group was made 100 was calculated. Efficacy (% DEX)=100×{(average value of IL-6 production inhibitory ratio of each test compound solution)/(average value of IL-6 production inhibitory ratio of DEX treated group)}(%)
# In addition, IC50 was calculated according to a conventional method. IDBS XLfit4 was used for the calculation.
row,Compound,IL-6 production inhibitory ratio (% DEX)
1,"COc1cc(OC[C@H](O)CC#N)ccc1-c1ccc2c(c1COc1cc(F)ccc1C)N(C)C(=O)C(C)(C)N2 [Compound 5-1, (R)-7-[4-(3-cyano-2-hydroxypropyl)oxy-2-methoxyphenyl]-8-(5-fluoro-2-methyl-phenoxymethyl)-1,3,3-trimethyl-3,4-dihydro-1H-quinoxalin-2-one]",98 % DEX
2,"COc1cc(OC[C@@H](O)CC#N)ccc1-c1ccc2c(c1COc1cc(F)ccc1C)N(C)C(=O)C(C)(C)N2 [Compound 5-2, (S)-7-[4-(3-cyano-2-hydroxypropyl)oxy-2-methoxyphenyl]-8-(5-fluoro-2-methyl-phenoxymethyl)-1,3,3-trimethyl-3,4-dihydro-1H-quinoxalin-2-one]",>99 % DEX
3,"CC[C@@H](O)COc1ccc(-c2ccc3c(c2COc2cc(F)ccc2C)N(C)C(=O)C(C)(C)N3)c(OC)c1 [Compound 1-4, (R)-8-(5-fluoro-2-methylphenoxymethyl)-7-[4-(2-hydroxybutyl)oxy-2-methoxyphenyl]-1,3,3-trimethyl-3,4-dihydro-1H-quinoxalin-2-one]",92 % DEX
4,"COc1ccc(O)cc1-c1ccc2c(c1COc1cc(F)ccc1C)N(C)C(=O)C(C)(C)N2 [Control compound C, 8-(5-fluoro-2-methylphenoxymethyl)-7-(5-hydroxy-2-methoxyphenyl)-1,3,3-trimethyl-3,4-dihydro-1H-quinoxalin-2-one, reference compound]",71 % DEX
5,"COc1cc(OCC(O)CC(=O)OC(C)(C)C)ccc1-c1ccc2c(c1COc1cc(F)ccc1C)N(C)C(=O)C(C)(C)N2 (stereo not drawn) [Compound 7-2, 7-[4-(3-t-butoxycarbonyl-2-hydroxypropyl)oxy-2-methoxyphenyl]-8-(5-fluoro-2-methylphenoxymethyl)-1,3,3-trimethyl-3,4-dihydro-1H-quinoxalin-2-one]",>99 % DEX
